Measured values from patent US6949528B1, “Compositions containing lysophosphatidic acids which inhibit apoptosis and uses thereof” (priority 1998, dated 2005).

B1: Ovalbumin: ovalbumin from chicken egg (protein, UniProt P01012 2-386, looked up)
Ovalbumin: GSIGAASMEFCFDVFKELKVHHANENIFYCPIAIMSALAMVYLGAKDSTRTQINKVVRFDKLPGFGDSIEAQCGTSVNVHSSLRDILNQITKPNDVYSFSLASRLYAEERYPILPEYLQCVKELYRGGLEPINFQTAADQARELINSWVESQTNGIIRNVLQPSSVDSQTAMVLVNAIVFKGLWEKAFKDEDTQAMPFRVTEQESKPVQMMYQIGLFRVASMASEKMKILELPFASGTMSMLVLLPDEVSGLEQLESIINFEKLTEWTSSNVMEERKIKVYLPRMKMEEKYNLTSVLMAMGITDVFSSSANLSGISSAESLKISQAVHAAHAEINEAGREVVGSAEAGVDAASVSEEFRADHPFLFCIKHIATNAVLFFGRCVSP

Experiments:
C3H/10T1/2 cells = assay: Effect of proteins on anti-apoptotic activity of soy LPA, C3H/10T1/2 cell assay; format: cell-based; details: for Protein +10 (g/mL Soy LPA, percent cells saved from apoptosis): 1:10 soy-LPA to protein (weight:weight); for Protein +10 (g/mL Soy LPA, percent cells saved from apoptosis) / Protein Alone (0.01%), percent cells saved from apoptosis: 24 hours serum deprivation; for Increase with LPA: difference protein + soy LPA minus protein alone; for Protein Alone (0.01%), percent cells saved from apoptosis: protein without LPA; for enhancement of the anti-apoptotic activity of soy-LPA (more than additive protection): soy-LPA added together with protein
Description: Soy derived LPA (soy-LPA) (Avanti® Polar Lipids, Inc., Alabaster, Ala.) was stored in an organic solution and was dried immediately prior to assay using a Speed Vac (Savant Instruments, Hicksville, N.Y.). Tested proteins were resuspended at 10_mg/mL in a bicarbonate buffered saline/EDTA solution (50_mM NH4HCO3, […] NaCl, 250_(M EDTA) prior to being added to dried soy-LPA at a 1:10_soy-LPA to protein (weight:weight) ratio. The mixture was then sonicated for 5 minutes using a high power 80 Watt sonication bath (Laboratory Supplies Co., Hicksville, N.Y.). Following sonication, concentrated LPA/protein mixtures were left standing for 15 minutes at room temperature prior to dilution in cell culture assay media.
The effect of various proteins on the ability of LPA to protect serum-starved cells from apoptotic death was measured using the C3H/10T1/2 cell assay, performed as described in Example 2, above. Log phase cells were seeded in 60 mm Petri dishes at 175-350 cells per cm^2 and maintained in Basal Medium Eagle (BME) supplemented with 10% fetal calf serum (Hyclone, Logan, Utah). At time zero, serum containing media was replaced with sterile filtered BME containing the LPA/protein mixture to be tested. After 24 hours of treatment, serum deprived release (SDR) cells (the apoptotic cell population) and adherent (ADH) cells were separated and counted using an electronic cell counter (Coulter Corporation, Hialea, Fla.). SDR cells were counted with the lower threshold setting at 6.3_(m and were defined as the apoptotic cells dying in response to cultivation in serum-free-media. Approximately 95% of the SDR cells are confirmed to be apoptotic as previously shown by size, ultrastructure and DNA fragmentation analysis. Adherent cells were removed by treatment with a Hanks' balanced salt solution containing 0.05% trypsin and 0.53_mM EDTA and were counted with the lower threshold setting at 11.01_(m. All samples were tested in triplicate and serum-deprived controls (BME only) were assayed at both the beginning and end of each experiment.

[1] = Electrophoresis radiobinding assay (native polyacrylamide gel); format: binding; details: FIG. 9 and other experiments
Description: Electrophoresis radiobinding assay. Proteins were analyzed on native polyacrylamide gels following incubation with ^3H-labeled 18:1-LPA. ^3H-labeled lysophosphatidic acid (1-oleyl) (DuPont NEN Products, Boston, Mass.) was added to tested proteins at 1 nM labeled 18:1-LPA/45_(g protein. Mixtures were incubated at a bicarbonate buffered saline/EDTA solution at 37° C. for 60 minutes. Incubated samples were mixed with native gel sample buffer (312_mM Tris pH 6.8, 50% glycerol, 0.05% bromophenol blue) and loaded entirely onto an 8% discontinuous native polyacrylamide gel. Following electrophoresis, proteins were fixed into the gels using an aqueous solution consisting of glacial acetic acid, 10% (vol/vol) and methan 130% (vol./vol.) solution. Fixed gels were then incubated for 60 minutes in autoradiography enhancer (EN^3HANCE, DuPont NEN Products, Boston, Mass.), and dried onto 3M chromatography paper (Whatman, Clifton, N.J.) and exposed to autoradiography film (X-Omat, Kodak, Rochester, N.Y.) for 72 hours at −80° C.

[2] = Size shift assay (Superdex S75 column); format: binding; details: FIGS. 10A-10D
Description: Size shift assay. Size analysis of LPA both with and without protein was performed using a Superdex® S75 column (Pharmacia Biotech, Uppsala, Sweden). Soy LPA was combined in a chloroform solution with 0.5 Ci^3H-labeled 18:1-LPA (DuPont NEN Products, Boston, Mass.), dried under vacuum and resuspended by sonication in a buffered solution (50 mM ammonium bicarbonate, 154 mM sodium chloride, pH 8.0) in the presence or absence of test protein. The ammonium bicarbonate/sodium chloride solution was used as the mobile phase at a flow rate of 1 ml/min. One-minute fractions were collected for 30 minutes following sample injection. Fractions were counted in scintillant solution using a liquid scintillation counter (Beckman Instrument, Irvine, Calif.). Calibration was performed using a standard solution containing purified proteins (BioRad, Hercules, Calif.).

Molecule | Protein +10 (g/mL Soy LPA, percent cells saved from apoptosis) (C3H/10T1/2 cells) | Increase with LPA (C3H/10T1/2 cells) | Protein Alone (0.01%), percent cells saved from apoptosis (C3H/10T1/2 cells) [%] | enhancement of the anti-apoptotic activity of soy-LPA (more than additive protection) (C3H/10T1/2 cells) | binding to 18:1-LPA, detectable band [1] | elution profile / binding of LPA to protein [2]
Acyl Carrier Protein: acyl carrier protein from E. coli | 36.2% | +28.1% | 8.1 | to a lesser degree | did not yield detectable bands | –
Cytochrome C: cytochrome C from bovine heart | 54.6% | +38.4% | 16.2 | – | – | LPA does not bind to this protein
Albumin (Fatty Acid Depleted): fatty acid depleted (FAD) bovine serum albumin (BSA) | 58.7% | +57.8% | 0.9 | – | bind to 18:1-LPA | most of the LPA was bound to BSA
B1 | 15.I | +7.2% | 7.9 | did not enhance | produce a detectable band | –
